Experimental data taken from ChEMBL document CHEMBL1201862, “PubChem BioAssay data set” (2004).
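Interpolation was linear, between the two tested concentrations surrounding the appropriate level; five concentrations were tested over 48 hours in 96-well plates. GI50 is the concentration that inhibits growth by half.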 Activity calls are given as the source filed them. Cut-off read from the data, not from the text of the source: active = GI50 up to about 1.1 µM and inactive = higher.

Key:
Assay in all cases: inhibition of tumour cell growth, NCI panel, 48 h
SF-295 = test system: SF-295
NCI-H23 = test system: NCI-H23
U-251 = test system: U-251
OVCAR-8 = test system: OVCAR-8
TK-10 = test system: TK-10
KM12 = test system: KM12
HOP-62 = test system: HOP-62
MCF7 = test system: MCF7
SW-620 = test system: SW-620
NCI-H226 = test system: NCI-H226
MDA-N = test system: MDA-N
RPMI-8226 = test system: RPMI-8226
OVCAR-4 = test system: OVCAR-4
ACHN = test system: ACHN
OVCAR-5 = test system: OVCAR-5
CCRF-CEM = test system: CCRF-CEM
HCC 2998 = test system: HCC 2998
UACC-62 = test system: UACC-62
SN12C = test system: SN12C
A498 = test system: A498

Measured: GI50

COc1ccc(C[C@H]2COC(=O)[C@@H]2Cc2ccc(Br)cc2)cc1OC
inactive: SF-295 14.5 µM | NCI-H23 9.06 µM | U-251 35 µM | OVCAR-8 30.7 µM | TK-10 28.6 µM | KM12 21.9 µM | HOP-62 33.6 µM | MCF7 16.6 µM | SW-620 44.7 µM | NCI-H226 28.8 µM | MDA-N 27.7 µM | RPMI-8226 17.9 µM | OVCAR-4 19.7 µM | ACHN 15.1 µM | OVCAR-5 23.4 µM | CCRF-CEM 18.9 µM | HCC 2998 28.3 µM | UACC-62 27.8 µM | SN12C 29.7 µM

Cc1ccc2c(c1)C(C(=O)N[C@@H]1C(=O)N3[C@@H]1SC(C)(C)[C@@H]3C(=O)O)OCCC2 (stereo partly specified)
inactive: SF-295 > 100 µM | NCI-H23 > 100 µM | U-251 > 100 µM | OVCAR-8 > 100 µM | TK-10 > 100 µM | KM12 > 100 µM | HOP-62 > 100 µM | MCF7 > 100 µM | A498 > 100 µM | SW-620 > 100 µM | NCI-H226 > 100 µM | RPMI-8226 > 100 µM | OVCAR-4 > 100 µM | ACHN > 100 µM | OVCAR-5 > 100 µM | CCRF-CEM > 100 µM | HCC 2998 > 100 µM | UACC-62 > 100 µM | SN12C > 100 µM

COc1cc2c3c(c1Oc1nnnn1-c1ccccc1)-c1c(ccc4c1OCO4)C[C@H]3N(C)CC2
inactive: SF-295 32.2 µM | NCI-H23 36.6 µM | U-251 69 µM | OVCAR-8 47.8 µM | TK-10 75.5 µM | KM12 32.1 µM | HOP-62 60.5 µM | SW-620 80.7 µM | NCI-H226 > 100 µM | MDA-N 21.9 µM | RPMI-8226 32.5 µM | ACHN 25.7 µM | OVCAR-5 > 100 µM | CCRF-CEM 24.5 µM | HCC 2998 20.7 µM | UACC-62 14.3 µM | SN12C 32.4 µM

Cc1nn2c(=O)c([N+](=O)[O-])c(/C=C/c3ccco3)nc2s1
inactive: SF-295 91 µM | NCI-H23 50.5 µM | U-251 29.4 µM | OVCAR-8 32.7 µM | TK-10 > 100 µM | KM12 39.2 µM | HOP-62 > 100 µM | MCF7 38.5 µM | SW-620 48.2 µM | NCI-H226 77.3 µM | MDA-N 26.9 µM | RPMI-8226 36.7 µM | OVCAR-4 > 100 µM | ACHN 60.5 µM | OVCAR-5 73.1 µM | CCRF-CEM 31.7 µM | HCC 2998 > 100 µM | UACC-62 65.3 µM | SN12C 64.9 µM

ClCc1nc2cc(Cl)ccc2o1
inactive: SF-295 20.3 µM | NCI-H23 8.99 µM | U-251 3.15 µM | OVCAR-8 4.91 µM | TK-10 2.83 µM | KM12 12.3 µM | HOP-62 2.27 µM | MCF7 2.47 µM | SW-620 3.49 µM | NCI-H226 15.9 µM | MDA-N 5.71 µM | RPMI-8226 1.42 µM | OVCAR-4 1.71 µM | ACHN 1.72 µM | OVCAR-5 18.7 µM | CCRF-CEM 1.96 µM | HCC 2998 2.26 µM | UACC-62 8.15 µM | SN12C 6.53 µM

COC1OC(C(=O)O)C2OC(C)(C)OC12 (stereo unspecified)
inactive: SF-295 > 100 µM | NCI-H23 > 100 µM | U-251 > 100 µM | OVCAR-8 > 100 µM | TK-10 > 100 µM | KM12 > 100 µM | HOP-62 > 100 µM | MCF7 > 100 µM | SW-620 > 100 µM | NCI-H226 > 100 µM | MDA-N > 100 µM | RPMI-8226 > 100 µM | OVCAR-4 > 100 µM | ACHN > 100 µM | OVCAR-5 > 100 µM | CCRF-CEM > 100 µM | HCC 2998 > 100 µM | UACC-62 > 100 µM | SN12C > 100 µM

COc1ccc(-c2c3c(n(C4OC(COC(C)=O)C(OC(C)=O)C(OC(C)=O)C4OC(C)=O)c(=S)c2C#N)CCC3)cc1 (stereo unspecified)
inactive: SF-295 > 100 µM | NCI-H23 > 100 µM | U-251 > 100 µM | TK-10 > 100 µM | KM12 > 100 µM | HOP-62 > 100 µM | MCF7 > 100 µM | SW-620 > 100 µM | MDA-N > 100 µM | RPMI-8226 > 100 µM | OVCAR-4 > 100 µM | ACHN > 100 µM | OVCAR-5 > 100 µM | CCRF-CEM > 100 µM | HCC 2998 > 100 µM | UACC-62 > 100 µM | SN12C 71.4 µM

COC1CC(OC2C(C)OC(OC3C(C)OC(OC4C(C)OC(O[C@H]5CC[C@@]6(C)C(=CC[C@]7(O)[C@@H]6C[C@@H](OC(C)=O)[C@@]6(C)[C@]7(O)CC[C@@]6(O)C(C)=O)C5)CC4OC)CC3OC)CC2OC)OC(C)C1O (stereo partly specified)
inactive: SF-295 > 25 µM | NCI-H23 > 25 µM | U-251 > 25 µM | OVCAR-8 > 25 µM | TK-10 > 25 µM | KM12 > 25 µM | HOP-62 > 25 µM | MCF7 > 25 µM | SW-620 > 25 µM | NCI-H226 > 25 µM | MDA-N > 25 µM | RPMI-8226 > 25 µM | OVCAR-4 > 25 µM | ACHN > 25 µM | OVCAR-5 > 25 µM | CCRF-CEM > 25 µM | HCC 2998 > 25 µM | UACC-62 > 25 µM | SN12C > 25 µM

O=C1CCCC2(c3ccccc3)Nc3ccccc3N12 (stereo unspecified)
inactive: SF-295 97.1 µM | NCI-H23 > 100 µM | U-251 > 100 µM | OVCAR-8 > 100 µM | TK-10 > 100 µM | KM12 > 100 µM | HOP-62 > 100 µM | MCF7 > 100 µM | SW-620 > 100 µM | NCI-H226 > 100 µM | MDA-N > 100 µM | RPMI-8226 > 100 µM | OVCAR-4 > 100 µM | ACHN > 100 µM | OVCAR-5 > 100 µM | CCRF-CEM > 100 µM | HCC 2998 > 100 µM | UACC-62 98.6 µM | SN12C > 100 µM

CN1CNc2nc(N)n(C)c(=O)c2C1
inactive: SF-295 > 10 µM | NCI-H23 > 10 µM | U-251 > 10 µM | OVCAR-8 > 10 µM | TK-10 > 10 µM | KM12 > 10 µM | NCI-H226 > 10 µM | MDA-N > 10 µM | OVCAR-4 > 10 µM | ACHN > 10 µM | OVCAR-5 > 10 µM | CCRF-CEM > 10 µM | HCC 2998 > 10 µM | UACC-62 > 10 µM | SN12C > 10 µM

CCOC(=O)/C=C/CCC(C)(C)COC(C)=O
inactive: SF-295 > 10 µM | NCI-H23 > 10 µM | U-251 > 10 µM | OVCAR-8 > 10 µM | TK-10 > 10 µM | KM12 > 10 µM | HOP-62 > 10 µM | MCF7 > 10 µM | SW-620 > 10 µM | NCI-H226 > 10 µM | MDA-N > 10 µM | RPMI-8226 > 10 µM | OVCAR-4 > 10 µM | ACHN > 10 µM | OVCAR-5 > 10 µM | CCRF-CEM > 10 µM | HCC 2998 > 10 µM | UACC-62 > 10 µM | SN12C > 10 µM
